In paper PMC6337631, “Effective Tetradentate Compound Complexes against Leishmania spp. that Act on Critical Enzymatic Pathways of These Parasites” (Molecules, 2018):

Key:
[1] = tested on: L. braziliensis promastigotes; test: Ultrastructural alterations by TEM, L. braziliensis; type: cell-based, Leishmania braziliensis; details: 72 h at IC25 concentration
Description: (§1) Parasites were cultured at a density of 5 × 10^5 cells/mL with medium containing the tested compounds at IC25 concentrations. After 72 h at 28 °C, the cultures were processed using a technique previously described and analysed by TEM (LIBRA 120 PLUS, Zeiss, Barcelona, Spain).

[2] = tested on: Leishmania donovani promastigote forms; test: Promastigote test (extracellular forms), L. donovani; type: cell-based; details: Leishmania donovani; 72 h; 100 µM to 1 µM; mean ± SD
Description: (§2) Promastigote forms of three different Leishmania spp., L. donovani (MHOM/PE/84/LC26), L. infantum (MCAN/ES/2001/UCM-10) and L. braziliensis (MHOM/BR/1975/M2904), were cultured in vitro in Medium Trypanosomes Liquid (MTL) supplemented with 10% inactivated foetal calf serum (FCS) in an air atmosphere at 28 °C, in Roux flasks (Corning, Manassas, VA, USA) with a surface area of 75 cm^2, according to [33].
(§3) The compounds and the reference drug Glu were dissolved in DMSO (Panreac, Barcelona, Spain) and tested from 100 µM to 1 µM with 0.1% (v/v) DMSO final concentration in plates. Therefore, controls were prepared including 0.1% (v/v) of this component, as previously described.
(§4) Promastigote forms were collected in the exponential growth phase and seeded at 1 × 10^5 parasites/mL in 24-well microplates (Nunc, Naperville, IL, USA), after adding each compound at concentrations from 100 µM to 1 µM and cultured in 500 μL/well volumes at 28 °C. After 72 h incubation, the leishmanicidal activity was assessed using a Neubauer haemocytometric chamber in comparison with the control cultures. […] Each drug concentration was tested in triplicate in four separate determinations.

[3] = tested on: Leishmania infantum promastigote forms; test: Promastigote test (extracellular forms), L. infantum; type: cell-based; details: Leishmania infantum; 72 h; 100 µM to 1 µM; mean ± SD of four determinations
Description: as §2, §3, §4

[4] = tested on: L. infantum promastigotes; test: Ultrastructural alterations by TEM, L. infantum; type: cell-based, Leishmania infantum; details: 72 h at IC25 concentration
Description: as §1

[5] = tested on: Leishmania donovani infection of J774.2 macrophages; test: Infectivity assay, L. donovani; type: cell-based; details: IC25 concentration
Description: After the initial in vitro studies we were interested in finding out if the six most leishmanicidal compounds could also prevent the infection of host cells. For this reason, we conducted an assay in which the J774.2 macrophages were exposed to the metacyclic promastigotes and the compound at IC25 concentration at the same time. The propagation of the parasitic infection was determined by measuring the infection rate and the average number of amastigotes per macrophage cell present during the 10-day treatment period. In addition, the endocytic (short-time of infection) and infection (long-time of infection) indexes were calculated.
Adherent macrophages were grown, seeded and infected with metacyclic promastigotes as mentioned above. The compounds at IC25 concentrations (calculated using linear regression analysis from the Kc values of the concentrations employed) were added immediately after infection and incubation was performed for 12 h at 37 °C in humidified 95% air, 5% CO2 atmosphere. in humidified 95% air, 5% CO2 atmosphere at 37 °C Non-phagocytosed parasites and drugs were removed by washing, and then the infected cultures were grown for 10 days, adding fresh culture medium every 48 h, according to [35]. Amastigotes per macrophage count was determined in methanol-fixed and Giemsa-stained preparations as mentioned above every 48 h. The infection rate (defined as the percentage of infected cells), the average number of amastigotes per macrophage, and the endocytic and infection indexes (calculated by multiplying the infection rate by the average number of amastigotes per macrophage) were determined. Each drug concentration was tested in triplicate in four separate determinations.

[6] = tested on: J774.2 murine macrophages; test: Cytotoxicity test on macrophages by flow cytometry; type: cell-based, mouse; details: Mus musculus, J774.2 macrophages, 72 h, read-out: Toxicity IC50 Macrophage
Description: as §3
The macrophage line J774.2 [European collection of cell cultures (ECACC) number 91051511] was derived in 1968 from a tumour in a female BALB/c mouse. Macrophages were grown in humidified 95% air, 5% CO2 atmosphere at 37 °C in Minimal Essential Medium (MEM) with 2 mM glutamine and 20% (v/v) inactivated FCS. The cytotoxicity test on macrophages was performed by Flow cytometry analysis according to a method previously described. Briefly, cells were seeded at a density of 5 × 10^4 cells/well in 24-well microplates (Nunc, Naperville, IL, USA). After 48 h incubation, the medium was removed, and fresh medium was added together with each test compound at concentrations from 100 µM to 1 µM and cultured in 500 μL/well volumes for 72 h. Thereafter, cells were recovered by centrifugation, and cell viability was determined by Flow cytometry (FACS Vantage flow cytometer, Becton Dickinson, San Jose, CA, USA) after incubating the cells with propidium iodide ([…]) and fluorescein diacetate (100 ng/mL). The percentage of viability was calculated in comparison with the control cultures. […] Each drug concentration was tested in triplicate in four separate determinations.

[7] = tested on: Leishmania infantum amastigote forms; test: Amastigote test (intracellular forms in J774.2 macrophages), L. infantum; type: cell-based; details: Leishmania infantum, 72 h, mean ± SD
Description: as §2, §3
J774.2 macrophages were grown and seeded at a density of 1 × 10^4 cells/well in 24-well microplates (Nunc) with rounded coverslips on the bottom and cultured for 48 h in humidified 95% air, 5% CO2 atmosphere at 37 °C in Minimal Essential Medium (MEM) with 2 mM glutamine and 20% (v/v) inactivated FCS. Adherent macrophages were infected with metacyclic promastigotes in the stationary growth phase of L. donovani, L. infantum and L. braziliensis at a multiplicity of infection (MOI) ratio of 1:10 and maintained for 24 h. Non-phagocytosed parasites were removed by washing, and after addition of the testing compounds at concentrations from 100 µM to 1 µM, cultured in 500 μL/well volumes. Control cultures were also included. After 72 h incubation, leishmanicidal activity was assessed based on the number of amastigotes in treated and untreated cultures in methanol-fixed and Giemsa-stained preparations by analyzing 500 host cells distributed in randomly chosen microscopic fields. The leishmanicidal effect was calculated as described to determine the leishmanicidal activity in the promastigote forms. Each drug concentration was tested in triplicate in four separate determinations.

[8] = last day of the experiment (day 10)

CN(C)c1ccnc(CN2CCC[C@H]2[C@@H]2CCCN2Cc2cc(N(C)C)ccn2)c1 [Compound 7]
ultrastructural alterations of L. braziliensis promastigotes (TEM) [1]: damaged, swollen, and full of vacuoles | IC50 [2]: 8.1 ± 3.9 µM | IC50 [3]: 12.3 ± 2.2 µM | ultrastructural alterations of L. infantum promastigotes (TEM) [4]: most destructive compounds | day at which the decline in the infection rate appeared, L. donovani ([5]; 10-day infectivity assay): 2 days | percentage of decrease in infection rate in comparison to the control, L. donovani [5, 8]: 88% | percentage of decrease in number of amastigotes per macrophage cell in comparison to the control, L. donovani [5, 8]: 74% | IC50 [6]: 172 ± 11.3 µM | IC50 [7]: 9 ± 0.4 µM
